This passage reports IC50 results from ChEMBL document CHEMBL1137053, “QSAR modeling of the MAO inhibitory activity of xanthones derivatives” (Bioorg Med Chem Lett, 2004).

The structures appear in SMILES notation.

The target in the test is T1, Amine oxidase [flavin-containing] A (Homo sapiens, UniProt P21397).
T1 sequence (P21397 whole entry): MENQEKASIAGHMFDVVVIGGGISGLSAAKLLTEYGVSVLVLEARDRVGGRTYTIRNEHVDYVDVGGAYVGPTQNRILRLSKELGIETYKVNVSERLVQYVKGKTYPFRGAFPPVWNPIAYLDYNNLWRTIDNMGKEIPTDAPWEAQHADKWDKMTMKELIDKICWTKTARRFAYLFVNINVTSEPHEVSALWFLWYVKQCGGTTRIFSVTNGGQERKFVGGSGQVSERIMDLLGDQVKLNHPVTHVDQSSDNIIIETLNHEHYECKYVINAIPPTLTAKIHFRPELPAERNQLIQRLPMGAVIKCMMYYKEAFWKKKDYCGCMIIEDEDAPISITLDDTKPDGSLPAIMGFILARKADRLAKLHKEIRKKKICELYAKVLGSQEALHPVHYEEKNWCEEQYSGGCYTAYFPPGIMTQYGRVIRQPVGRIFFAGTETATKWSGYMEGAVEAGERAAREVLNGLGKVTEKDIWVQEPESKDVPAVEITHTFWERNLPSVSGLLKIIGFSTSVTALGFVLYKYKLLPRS
Kind of test: Concentration required to inhibit monoamine oxidase activity by 50%.
As for `COc1cc(O)c2c(=O)c3c(OC)c(OC)ccc3oc2c1` [DECUSSATIN], the half-inhibitory concentration (IC50) stood at 19 µM.
The value for `Cc1c(O)c(Br)c2oc3ccccc3c(=O)c2c1O` was 14.9 µM; that for `COc1cccc2c(=O)c3ccccc3oc12` was 30 µM.
The molecule `O=c1c2c(O)cc(O)cc2oc2ccc(O)c(O)c12` had an IC50 of 24 µM.
`COc1cc(O)c2c(=O)c3ccccc3oc2c1`: the IC50 came to 0.11 µM.
Under `O=c1c2ccccc2oc2ccc(O)cc12` stands 3.8 µM; under `COc1ccc2c(=O)c3ccccc3oc2c1O`, 18 µM; under `COc1cc(O)c2oc3c(C)ccc(OC)c3c(=O)c2c1`, 24 µM.
Under `COc1c(O)cc2oc3c(OC)cccc3c(=O)c2c1O` stands 51 µM; under `O=c1c2ccccc2oc2c(O)cccc12`, 1.3 µM.
Under `O=c1c2cc(O)ccc2oc2cc(O)cc(O)c12` stands 8 µM; under `Cc1c(O)cc(O)c2c(=O)c3ccccc3oc12`, 4.3 µM.
As for `COc1cccc2oc3ccccc3c(=O)c12`, it took 0.9 µM to reach half-maximal inhibition (IC50).
In turn, `O=c1c2cccc(O)c2oc2cc(O)cc(O)c12` yielded an IC50 of 3.8 µM.
`COc1cc(O)c2c(=O)c3cccc(OC)c3oc2c1` displayed an IC50 of 29 µM.
The molecule `O=c1c2ccc(O)cc2oc2c(O)cccc12` gave a half-maximal inhibitory concentration (IC50) of 4.5 µM.
The value for `Cc1c(O)c(Cl)c2oc3ccccc3c(=O)c2c1O` was 27 µM.
For `CC(C)=CCc1cc(O)c2c(=O)c3cccc(O)c3oc2c1O`, the IC50 worked out at 40 µM.
The value for `COc1cc(OC)c2c(=O)c3ccccc3oc2c1` was 20.2 µM.
In the case of `COc1cc(OC)c2c(=O)c3cccc(OC)c3oc2c1`, the IC50 amounted to 58 µM.
Under `O=c1c2cccc(O)c2oc2cccc(O)c12` stands 0.73 µM; under `O=c1c2c(O)cc(O)cc2oc2c(O)ccc(O)c12` [DEMETHYLBELLIDIFOLIN], 13 µM.
Under `COc1ccc2c(=O)c3ccccc3oc2c1` stands 0.18 µM.
Under `COc1cccc2c(=O)c3ccc(O)cc3oc12` stands 23 µM.
The molecule `CC(C)=CCC/C(C)=C\Cc1c(O)cc(O)c2c(=O)c3cccc(O)c3oc12` returned an IC50 of 37 µM.
Under `COc1cc(O)c2c(=O)c3c(O)c(O)ccc3oc2c1` [GENTIAKOCHIANIN] stands 8.5 µM; under `COc1ccc2c(=O)c3ccccc3oc2c1OC`, 31 µM.
The value for `O=c1c2cc(O)c(O)cc2oc2cc(O)cc(O)c12` was 25 µM; that for `COc1c(O)cc2oc3c(O)cccc3c(=O)c2c1O` was 2.7 µM.
The value for `COc1cc(O)c2c(=O)c3cccc(O)c3oc2c1` was 0.04 µM; that for `O=c1c2ccccc2oc2ccccc12` [XANTHONE] was 0.84 µM; that for `CC(C)=CCc1cc(O)c2oc3c(O)cccc3c(=O)c2c1O` was 3.3 µM.
For the molecule `Cc1c(O)cc2oc3ccccc3c(=O)c2c1O`, the concentration for half-maximal inhibition (IC50) was found to be 3.7 µM.
Under `COc1ccc2oc3ccccc3c(=O)c2c1` stands 5.3 µM.
`COc1cccc2oc3c(O)cccc3c(=O)c12` displayed a half-maximal inhibitory concentration (IC50) of 51 µM.
On to `COc1ccc2c(=O)c3cccc(OC)c3oc2c1`, for which the midpoint of inhibition, the IC50, lay at 36 µM.
The value for `COc1c(O)cc2oc3c(OC)c(O)ccc3c(=O)c2c1O` was 32 µM.
Under `COc1c(O)ccc2c(=O)c3ccccc3oc12` stands 65 µM; under `O=c1c2ccccc2oc2cccc(O)c12`, 0.31 µM.
The value for `O=c1c2ccccc2oc2cc(O)ccc12` was 1.1 µM; that for `COc1cc2oc3c(OC)cccc3c(=O)c2c(OC)c1OC` was 37 µM.
Turning to `COc1cc(O)c2c(=O)c3c(O)ccc(O)c3oc2c1` [BELLIDIFOLIN], the half-maximal inhibitory concentration (IC50) was determined as 0.66 µM.
